From paper PMC4897634, “Design of an α-helical antimicrobial peptide with improved cell-selective and potent anti-biofilm activity” (Scientific Reports, 2016)
Converted amounts (≈) assume the structure as drawn. “And” between values parts separate entries of the source, which are not always exact repeats. Identical values can stand only once. Where no end group is shown, it is not given here.

What was measured:
[1] = tested on: L929 mouse fibroblast cells; assay: Cytotoxicity, MTT assay; assay type: cell-based; conditions: 50 μM peptide, 1 hour
Experimental: The toxicity of the peptides against L929 mouse fibroblast cells was assessed by a standard MTT assay. L929 mouse fibroblast cells from ATCC (Manassas, VA, USA) were maintained in our laboratory. L929 cells were cultured in RPMI 1640 supplemented with 10% (v/v) FBS, 2 mM L-glutamine, 100 U/ml penicillin and […] streptomycin and maintained in a humidified incubator with 5% CO2 at 37 °C. L929 cells (5 × 10^3cells/well) were seeded in 96-well plates (Corning Inc., Lowell, MA, USA) and incubated overnight. Diluted peptides were added to L929 cells and incubated for 1 hour. Then, 20 μl of MTT (5 mg/ml) solution was added and incubated for 4 hours. The medium was removed, and 150 μl of DMSO was added to each well to dissolve the formazan crystals. The absorbance was measured at 490 nm on a microplate reader (SpectraMax M5; Molecular Devices, Sunnyvale, CA, USA). Cell viabilities were calculated by using the equation (3): […]

human erythrocytes = assay: Haemolytic activity; assay type: cell-based; conditions: 37 °C, 30 min; for haemolytic activity: 25 μM peptide; for haemolytic activity / haemolysis rate: human erythrocytes, relative to 0.1% Triton X-100; for MHC, minimum haemolytic concentration: concentration causing 10% haemolysis of hRBC, 200 μM used when no haemolysis detectable at 100 μM
Experimental: Haemolytic activity of the peptides was assayed by a standard procedure with slight modification. Fresh human erythrocytes were washed three times and resuspended at 1.25% haematocrit in PBS. Forty microlitres PBS-diluted peptide solution was added to a V-bottom 96-well plate (Corning Inc., Lowell, MA, USA), and 160 μl of erythrocytes was added. After incubation at 37 °C for 30 min, the samples were centrifuged, and the absorbance of the supernatant was measured at 450 nm using a multi-well microplate reader (SpectraMax M5; Molecular Devices, Sunnyvale, CA, USA) and compared with the 100% haemolysis caused by 0.1% Triton X-100. The percentage of haemolysis was calculated according to the equation (2): […]

Gram-positive bacteria = assay type: cell-based, S. aureus, S. epidermidis, B. subtilis; conditions: for TI, therapeutic index: ratio of MHC to GM
Experimental: (§1) The antimicrobial activities of the peptides, indicated by the minimum inhibitory concentrations (MIC), were determined against a range of Gram-negative (Table 3) and Gram-positive bacterial strains (Table 4). The geometric mean of MIC values (GM) from the three strains was calculated to provide an overall evaluation of antimicrobial activity.
(§2) The therapeutic index (TI) is defined as the ratio of the minimum haemolytic concentration (MHC) of peptides to the GM of peptides, and this value was used to evaluate cell selectivity of peptides towards the negatively charged region of bacterial cell membranes over the zwitterionic mammalian cell membranes.
(§3) The antibacterial activities of the peptides against three Gram-negative bacteria and three Gram-positive bacteria strains were measured using a modified version of the Clinical Laboratory and Standards Institute (CLSI) broth microdilution method as described previously. Three Gram-negative bacteria, Escherichia coli (1.8732), Pseudomonas aeruginosa (1.2421), and Klebsiella pneumonia (1.1736), and three Gram-positive bacteria, Staphylococcus aureus (1.8721), Staphylococcus epidermidis (1.4260), and Bacillus subtilis (1.3376), were purchased from the China General Microbiological Culture Collection Centre (CGMCC). Briefly, bacteria were grown in liquid LB medium (tryptone, 10 g/L, yeast extract, 5 g/L and NaCl, 10 g/L) at 37 °C to mid-log phase, and the bacteria were diluted to 1 × 10^6 colony-forming units (CFU)/ml. The peptides were serially diluted with phosphate-buffered saline (PBS), and 50 μl diluted peptides were added to 50 μl of the bacterial suspension in 96-well plate (Corning Inc., Lowell, MA, USA). After incubation at 37 °C for 18 to 20 hours, the absorbance of each well was recorded using a multi-well microplate reader (SpectraMax M5; Molecular Devices, Sunnyvale, CA, USA) at 600 nm. The lowest concentration at which the peptide inhibited complete growth of the bacteria was taken as the minimal inhibitory concentration (MIC).

[2] = tested on: Klebsiella pneumonia (1.1736); assay: Antimicrobial activity, broth microdilution MIC; assay type: cell-based; conditions: modified CLSI broth microdilution, LB medium, 1 × 10^6 CFU/ml, 37 °C, 18 to 20 hours, absorbance 600 nm
Experimental: as §3

[3] = tested on: Bacillus subtilis (1.3376); assay: Antimicrobial activity, broth microdilution MIC; assay type: cell-based; conditions: modified CLSI broth microdilution, LB medium, 1 × 10^6 CFU/ml, 37 °C, 18 to 20 hours, absorbance 600 nm
Experimental: as §3

[4] = tested on: Escherichia coli (1.8732); assay: Antimicrobial activity, broth microdilution MIC; assay type: cell-based; conditions: modified CLSI broth microdilution, LB medium, 1 × 10^6 CFU/ml, 37 °C, 18 to 20 hours, absorbance 600 nm
Experimental: as §3

[5] = tested on: Staphylococcus aureus (1.8721); assay: Antimicrobial activity, broth microdilution MIC; assay type: cell-based; conditions: modified CLSI broth microdilution, LB medium, 1 × 10^6 CFU/ml, 37 °C, 18 to 20 hours, absorbance 600 nm
Experimental: as §3

[6] = tested on: Pseudomonas aeruginosa (1.2421); assay: Antimicrobial activity, broth microdilution MIC; assay type: cell-based; conditions: modified CLSI broth microdilution, LB medium, 1 × 10^6 CFU/ml, 37 °C, 18 to 20 hours, absorbance 600 nm
Experimental: as §3

[7] = tested on: Staphylococcus epidermidis (1.4260); assay: Antimicrobial activity, broth microdilution MIC; assay type: cell-based; conditions: modified CLSI broth microdilution, LB medium, 1 × 10^6 CFU/ml, 37 °C, 18 to 20 hours, absorbance 600 nm
Experimental: as §3

Gram-negative bacteria = assay type: cell-based, E. coli, P. aeruginosa, K. pneumoniae; conditions: for TI, therapeutic index: ratio of MHC to GM
Experimental: as §1, §2, §3

Molecule: AIGSILGALAKGLPTLKSWIKNR-NH2 [A(I17K)]
- viability of treated L929 cells [1]: 7.9%
- haemolytic activity (human erythrocytes): 6.4%
- haemolysis rate (human erythrocytes; 100 μM peptide): 33%
- MHC, minimum haemolytic concentration (human erythrocytes): 50 µM
- TI, therapeutic index (Gram-positive bacteria; Gram-positive bacteria): 3.17
- MIC K. pneumoniae [2]: 50 µM
- MIC B. subtilis [3]: 6.25 µM
- MIC E. coli [4]: 25 µM
- MIC S. aureus [5]: 50 µM
- MIC P. aeruginosa [6]: 25 µM
- MIC S. epidermidis [7]: 12.5 µM
- TI, therapeutic index (Gram-negative bacteria; Gram-negative bacteria): 1.59

Molecule: AIGSILGRLAKGLPTLISWIKNR-NH2 [A(A8R)]
- haemolysis rate (human erythrocytes; 3.13 μM peptide): 12.9%
- haemolytic activity (human erythrocytes): 98.3%
- MHC, minimum haemolytic concentration (human erythrocytes): 3.12 µM and 3.13 µM
- TI, therapeutic index (Gram-positive bacteria; Gram-positive bacteria): 1
- MIC K. pneumoniae [2]: 12.5 µM
- MIC B. subtilis [3]: 3.13 µM
- MIC E. coli [4]: 12.5 µM
- MIC S. aureus [5]: 3.13 µM
- MIC P. aeruginosa [6]: 12.5 µM
- MIC S. epidermidis [7]: 3.13 µM
- TI, therapeutic index (Gram-negative bacteria; Gram-negative bacteria): 0.25

Molecule: CC[C@H](C)[C@H](NC(=O)CN)C(=O)NCC(=O)N[C@@H](C)C(=O)N[C@H](C(=O)N[C@@H](CC(C)C)C(=O)N[C@@H](CCCCN)C(=O)N[C@H](C(=O)N[C@@H](CC(C)C)C(=O)N[C@H](C(=O)N[C@H](C(=O)NCC(=O)N[C@@H](CC(C)C)C(=O)N1CCC[C@H]1C(=O)N[C@@H](C)C(=O)N[C@@H](CC(C)C)C(=O)N[C@H](C(=O)N[C@@H](CO)C(=O)N[C@@H](Cc1c[nH]c2ccccc12)C(=O)N[C@H](C(=O)N[C@@H](CCCCN)C(=O)N[C@@H](CCCNC(=N)N)C(=O)N[C@@H](CCCCN)C(=O)N[C@@H](CCCNC(=N)N)C(=O)N[C@@H](CCC(N)=O)C(=O)N[C@@H](CCC(N)=O)C(N)=O)[C@@H](C)CC)[C@@H](C)CC)[C@@H](C)O)[C@@H](C)O)C(C)C)C(C)C [Melittin, reference compound]
- MHC, minimum haemolytic concentration (human erythrocytes): 0.78 µM
- MIC K. pneumoniae [2]: 6.25 µM (≈ 17.8 µg/mL)

Molecule: RIGSILGRLAKGLPTLISWIKNR-NH2 [A(A1R, A8R)]
- MHC, minimum haemolytic concentration (human erythrocytes): 6.25 µM
- TI, therapeutic index (Gram-positive bacteria; Gram-positive bacteria): 1
- MIC K. pneumoniae [2]: 6.25 µM
- MIC B. subtilis [3]: 6.25 µM
- MIC E. coli [4]: 6.25 µM
- MIC S. aureus [5]: 12.5 µM
- MIC P. aeruginosa [6]: 6.25 µM
- MIC S. epidermidis [7]: 3.13 µM
- TI, therapeutic index (Gram-negative bacteria; Gram-negative bacteria): 1

Molecule: AIGSILGRLAKGLPTLKSWIKNR-NH2 [A(A8R, I17K)]
- viability of treated L929 cells [1]: 21.1%
- MHC, minimum haemolytic concentration (human erythrocytes): 100 µM
- TI, therapeutic index (Gram-positive bacteria; Gram-positive bacteria): 5.04
- MIC K. pneumoniae [2]: 25 µM
- MIC B. subtilis [3]: 12.5 µM
- MIC E. coli [4]: 25 µM
- MIC S. aureus [5]: 100 µM
- MIC P. aeruginosa [6]: 25 µM
- MIC S. epidermidis [7]: 6.25 µM
- TI, therapeutic index (Gram-negative bacteria; Gram-negative bacteria): 4

Molecule: RIGSILGRLAKGLPTLRSWIKNR-NH2 [A(A1R, A8R, I17R)]
- MHC, minimum haemolytic concentration (human erythrocytes): 100 µM
- TI, therapeutic index (Gram-positive bacteria; Gram-positive bacteria): 6.35
- MIC K. pneumoniae [2]: 12.5 µM
- MIC B. subtilis [3]: 12.5 µM
- MIC E. coli [4]: 12.5 µM
- MIC S. aureus [5]: 100 µM
- MIC P. aeruginosa [6]: 12.5 µM
- MIC S. epidermidis [7]: 3.13 µM
- TI, therapeutic index (Gram-negative bacteria; Gram-negative bacteria): 8

Molecule: RIGSILGALAKGLPTLKSWIKNR-NH2 [A(A1R, I17K)]
- viability of treated L929 cells [1]: 6.3%
- MHC, minimum haemolytic concentration (human erythrocytes): 100 µM
- TI, therapeutic index (Gram-positive bacteria; Gram-positive bacteria): 6.35
- MIC K. pneumoniae [2]: 25 µM
- MIC B. subtilis [3]: 6.25 µM
- MIC E. coli [4]: 25 µM
- MIC S. aureus [5]: 100 µM
- MIC P. aeruginosa [6]: 12.5 µM
- MIC S. epidermidis [7]: 6.25 µM
- TI, therapeutic index (Gram-negative bacteria; Gram-negative bacteria): 5.04

Molecule: RIGVLLARLPKLFSLFKLMGKKV-NH2 [RV-23, reference compound]
- MHC, minimum haemolytic concentration (human erythrocytes): 6.25 µM
- TI, therapeutic index (Gram-positive bacteria; Gram-positive bacteria): 1.26
- MIC K. pneumoniae [2]: 6.25 µM
- MIC B. subtilis [3]: 3.125 µM and 3.13 µM
- MIC E. coli [4]: 6.25 µM
- MIC S. aureus [5]: 12.5 µM
- MIC P. aeruginosa [6]: 6.25 µM
- MIC S. epidermidis [7]: 3.125 µM and 3.13 µM
- TI, therapeutic index (Gram-negative bacteria; Gram-negative bacteria): 1

Molecule: M(G1R, V8R, I17R): melittin analogue with residues at position 1, 8 and 17 replaced by positively charged residues (RIGAVLKRLTTGLPALRSWIKRKRQQ; not fully specified; ends and bridges not checked; UniProt P01501 44-69, looked up, variant G1R V8R I17R)
- MHC, minimum haemolytic concentration (human erythrocytes): 200 µM
- GM, geometric mean of MIC (Gram-positive bacteria; Gram-positive strains S. aureus, S. epidermidis, B. subtilis): 12.5 µM
- Fold (Gram-positive bacteria; Table S3, TI compared with melittin, Gram-positive bacteria): 64
- TI, therapeutic index (Gram-positive bacteria; Gram-positive bacteria): 16
- MIC K. pneumoniae [2]: 12.5 µM
- MIC B. subtilis [3]: 3.125 µM
- MIC E. coli [4]: 25 µM
- MIC S. aureus [5]: 100 µM
- MIC P. aeruginosa [6]: 25 µM
- MIC S. epidermidis [7]: 6.25 µM
- GM, geometric mean of MIC (Gram-negative bacteria; Gram-negative strains E. coli, P. aeruginosa, K. pneumoniae): 19.8 µM
- Fold (Gram-negative bacteria; Table S2, TI compared with melittin, Gram-negative bacteria): 101
- TI, therapeutic index (Gram-negative bacteria; Gram-negative bacteria): 10.1

Molecule: AIGSILGALAKGLPTLRSWIKNR-NH2 [A(I17R)]
- viability of treated L929 cells [1]: 6.6%
- haemolysis rate (human erythrocytes; 100 μM peptide): 74%
- MHC, minimum haemolytic concentration (human erythrocytes): 25 µM
- TI, therapeutic index (Gram-positive bacteria; Gram-positive bacteria): 3.17
- MIC K. pneumoniae [2]: 25 µM
- MIC B. subtilis [3]: 3.13 µM
- MIC E. coli [4]: 12.5 µM
- MIC S. aureus [5]: 25 µM
- MIC P. aeruginosa [6]: 12.5 µM
- MIC S. epidermidis [7]: 6.25 µM
- TI, therapeutic index (Gram-negative bacteria; Gram-negative bacteria): 1.59

Molecule: RIGSILGALAKGLPTLISWIKNR-NH2 [A(A1R)]
- haemolysis rate (human erythrocytes; 3.13 μM peptide): 25.9%
- MHC, minimum haemolytic concentration (human erythrocytes): 3.12 µM and 3.13 µM
- TI, therapeutic index (Gram-positive bacteria; Gram-positive bacteria): 0.63
- MIC K. pneumoniae [2]: 12.5 µM
- MIC B. subtilis [3]: 6.25 µM
- MIC E. coli [4]: 12.5 µM
- MIC S. aureus [5]: 6.25 µM
- MIC P. aeruginosa [6]: 6.25 µM
- MIC S. epidermidis [7]: 3.13 µM
- TI, therapeutic index (Gram-negative bacteria; Gram-negative bacteria): 0.31
